Experiments:
Lysozyme C-1 = biological target: T1, Lysozyme C-1 (Rattus norvegicus, UniProt P00697); assay: ChEBML_100187
T1 sequence (P00697 whole entry): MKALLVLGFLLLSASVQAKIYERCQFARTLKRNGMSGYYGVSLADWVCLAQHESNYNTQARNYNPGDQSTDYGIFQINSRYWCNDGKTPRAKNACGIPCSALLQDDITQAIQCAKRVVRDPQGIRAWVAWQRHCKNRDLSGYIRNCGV
From the text: Inhibitory effect of compound on the release of lysozyme in rat neutrophils stimulated with fMLP/CB

[1] = Inhibitory effect of compound on the release of Beta-glucuronidase in rat neutrophils stimulated with fMLP/CB

| SMILES | IC50 (Lysozyme C-1) | IC50 [1] |
| --- | --- | --- |
| O=c1c(-c2ccc(O)cc2O)coc2cc(O)cc(O)c12 [3-(2,4-Dihydroxy-phenyl)-5,7-dihydroxy-chromen-4-one] | 9.7 µM | – |
| C[C@](O)(CO)c1cc2c3c(ccc2o1)[C@@H]1COc2cc(O)ccc2[C@@H]1O3 [2-((11bR,12R)-9-Hydroxy-5b,11b-dihydro-6H-3,7,12-trioxa-benzo[a]cyclopenta[i]fluoren-2-yl)-propane-1,2-diol] | > 30 µM | > 30 µM |
| CN1CCN(CCCN2c3ccccc3Sc3ccc(C(F)(F)F)cc32)CC1 | 9 µM | – |
| O=c1c(O)c(-c2ccc(O)cc2)oc2cc(OC3O[C@H](CO)[C@@H](O)[C@H](O)[C@H]3O)cc(O)c12 (stereo not given in full) | > 30 µM | > 30 µM |
| COc1cc(O)ccc1-c1coc2cc(O)cc(O)c2c1=O [5,7-Dihydroxy-3-(4-hydroxy-2-methoxy-phenyl)-chromen-4-one] | > 30 µM | > 30 µM |
| O=c1cc(-c2ccc(O)cc2)oc2cc(O)ccc12 [7-hydroxy-2-(4-hydroxyphenyl)-4H-chromen-4-one] | > 30 µM | – |
| O=c1cc(-c2ccc(O)cc2)oc2cc(O)cc(O)c12 [Naringenin, 18] | 17.7 µM | – |

— BindingDB's records for doi:10.1016/j.bmcl.2003.11.074 (Kaohsiung Medical University, 2004)
